According to patent US5126368A, “Octenoic acid derivatives useful as thromboxane A2 inhibitors” (Imperial Chemical Industries plc, priority 1985, dated 1992):

Key:
[1] = system: rabbit aortal strip; test: Test (a): rabbit aortal strip model (Piper and Vane); type: cell-based; settings: agonist TXA2 or U46619
Experimental: (§1) As stated earlier, the compound of formula I is an antagonist of one or more of the actions of TXA2, for example certain of its actions on blood platelets, the vasculature and/or the lung.
(a) The rabbit aortal strip model devised by Piper and Vane (Nature, 1969, 223, 29-35) using as agonist a freshly prepared sample of TXA2, generated by addition of arachidonic acid (25 μg) to citrated, platelet rich rabbit plasma (250 μl) and allowing the mixture to aggregate fully over 90 seconds before use; alternatively the TXA2 mimetic agent known as U46619 (described by R.L. Jones et alia in "Chemistry, Biochemistry and Pharmacological Activity of Prostanoids" edited by S.M. Roberts and F. Scheinmann, at page 211; Pergamon Press, 1979) may be used as the agonist;

[2] = target: T1, human, citrated, platelet-rich plasma (Homo sapiens, UniProt P21731); test: Test (b): U46619-induced aggregation of human citrated platelet-rich plasma (Born); type: cell-based; settings: agonist U46619, averaged over several concentrations
T1 construct: aggregating human, citrated, platelet-rich plasma; endogenous in cells; host or cells: human platelets in citrated platelet-rich plasma
T1 sequence (P21731 1-343): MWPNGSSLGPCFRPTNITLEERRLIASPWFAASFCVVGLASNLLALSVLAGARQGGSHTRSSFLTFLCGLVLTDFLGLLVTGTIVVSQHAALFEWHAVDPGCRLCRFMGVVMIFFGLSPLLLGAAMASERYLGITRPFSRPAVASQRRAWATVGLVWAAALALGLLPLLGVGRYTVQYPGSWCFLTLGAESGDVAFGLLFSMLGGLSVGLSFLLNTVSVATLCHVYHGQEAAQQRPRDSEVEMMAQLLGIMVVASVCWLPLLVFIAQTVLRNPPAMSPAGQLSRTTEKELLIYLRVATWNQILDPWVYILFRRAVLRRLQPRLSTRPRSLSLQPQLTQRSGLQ
Text: as §1
(b) a blood platelet aggregation test based on that described by Born (Nature, 1962, 194, 927-929) and involving:
(i) aggregating human, citrated, platelet-rich plasma by addition of the TXA2 mimetic agent U46619 so that a dose-response curve is generated;
(ii) generating a dose-response curve for U46619 stimulated platelet aggregation in the presence of increasing amounts of test compound (generally in the range 10^-5 M to 10^-10 M); and
(iii) calculating a KB value indicating potency of TXA2 antagonism for the test compound, averaged over several concentrations, from the calculated 50% response value for U46619 aggregation in the presence and absence of test compound; and […]

[3] = system: U46619 induced bronchoconstriction; test: Test (c): U46619-induced bronchoconstriction, Konzett-Rossler anaesthetised guinea-pig model; type: in vivo; settings: 2 hours after oral dosing at 0.05 mg/kg, U46619 i.v.
Text: (c) a bronchoconstriction test involving measuring the inhibition by a test compound of the bronchoconstriction induced in the Konzett-Rossler, anaesthetised guinea-pig model (as modified by Collier and James, Brit. J. Pharmacol., 1967, 30, 283-307) by intravenous administration of the TXA2 mimetic agent, U46619 and involving:
(i) obtaining a cumulative dose-response curve to U46619 induced bronchoconstriction by intravenous administration of constant volumes of increasing concentrations of U46619 (0.2-4 μg/kg) in physiological saline solution and expressing bronchoconstriction as the maximum of that theoretically obtainable with no air flow to the test animal;
(ii) generating a cumulative dose-response curve to U46619 induced bronchoconstriction at 30 minute intervals for 3 hours after oral dosing of test compound; and
(iii) calculating a dose-ratio for the test compound (that is the ratio of concentration of U46619 required to cause 50% bronchoconstriction in the presence and absence of test compound) indicating the potency of TXA2 antagonism.

[4] = system: U46619 induced hypertension; test: Test (d): U46619-induced hypertension in anaesthetised rats; type: in vivo, rat (Alderley Park strain); settings: 1 hour after an oral dose of 5 mg/kg
Experimental: (d) Male rats (Alderley Park strain) are anaesthetised with sodium pentobarbital and blood pressure is monitored at the carotid artery. The TXA2 mimetic agent U46619 is administered intravenously at 5 μg/kg via the jugular vein to produce a 20-30 mm Hg ([…]) increase in systolic pressure. The procedure is repeated twice to establish reproducibility of the effect. A test compound is then administered either intravenously (via the jugular vein) or orally (via a cannula) directly into the stomach and the animal is challenged with U46619, five minutes after dosing with test compound and then successively every ten minutes until the hypertensive effect of U46619 is no longer blocked.

O=C(O)CCC/C=C\C[C@@H]1CO[C@H](C(F)(F)F)O[C@@H]1c1ccccc1 (relative stereo) [5(Z)-7-([2,4,5-cis]-4-phenyl-2-trifluoromethyl-1,3-dioxan-5-yl)heptenoic acid, reference compound]
pA2 [1]: 6.52±0.02

O=C(O)CCCC/C=C\C[C@@H]1CO[C@H](C(F)(F)F)O[C@@H]1c1ccccc1O (relative stereo) [compound of formula I, 6(Z)-8-([2,4,5-cis]-4-o-hydroxyphenyl-2-trifluoromethyl-1,3-dioxan-5-yl)octenoic acid]
pA2 [1]: 7.75±0.05 | Kb [2]: 3.35 µM | dose ratio [3]: > 60 | inhibition of U46619 induced hypertension [4]: > 70%
